Holding throughout (format): physicochemical
Series [1] can be described thus: Crystal form conversion on exposure to relative humidity. To be noted: room temperature. An excerpt:
(§1) It rehydrates and converts back to the mono-HCl salt hydrate when exposed to higher than 75% relative humidity at room temperature. The mono-HCl salt anhydrate Form II can also convert to crystalline mono-HCl salt anhydrate Form I when slurried in Acetone:H2O co-solvent or other co-solvent systems with water activity below 0.57-0.60.
The 1.6-HCl salt anhydrate of Compound A is further characterized by reflections corresponding to d-spacings of 5.03, 4.30, and 4.14 angstroms. The 1.6-HCl salt anhydrate of Compound A is even further characterized by reflections corresponding to d-spacings of 3.93, 3.63, and 3.50 angstroms. The 1.6-HCl salt anhydrate converts to the 1.6-HCl salt hydrate upon exposure to 10-95% relative humidity at room temperature.

The nature of series [2]: Solubility in 14.6 wt % IPA in DMF. To be noted: organic solvent or mixture. The protocol: To prepare the mono-HCl salt anhydrate Form I of Compound A, dissolve 1.00 g of Compound A freebase monohydrate in 7.0 mL (6.65 g) DMF at 55° C. Next, charge 0.05 eq of HCl. Then, charge 0.25 wt % media-milled seed ([…] of API). The solubility of Compound A HCl seed in 14.6 wt % IPA in DMF is <2 mg/mL. Age seed bed for 1 hr. Next, charge 0.92 eq of HCl over 8 hrs (linear charge rate) holding batch at 55. No dispersion is required. Total HCl charge is 0.97 eq. Cool the batch from 55° C. to 22° C. over 1 hr. Hold batch at 22° C. for one hour, then filter.

Series [3] is described as follows: Slurry experiment in organic solvent:H2O co-solvent (transition water activity, form conversion). The protocol:
This transition water activity was determined based on slurry experiment in Acetone:H2O, DMF:H2O and THF:H2O co-solvent. […] Crystalline mono-HCl salt hydrate dehydrates and converts to mono-HCl salt anhydrate Form II when exposed to low relative humidity or heated at high temperature.
as §1

Series [4] can be described thus: Physical stability of the solid on storage under controlled temperature/relative humidity. The conditions noted are these: for physical stability after storage: 5 months.

Where a name gives a salt, the structure may show the parent alone. A value given as a limit tells only on which side of the number the result lay.

Turning to `Cn1cc(-c2cnc3ccc4ccc(CS(=O)(=O)NCc5ccccn5)cc4c(=O)c3c2)cn1` [1.6-HCl salt anhydrate], in series [1], the “relative humidity at which it converts to the 1.6-HCl salt hydrate” value is given as 10-95%.
By solubility is commonly meant the concentration that dissolves in the medium under given conditions. With `Cn1cc(-c2cnc3ccc4ccc(CS(=O)(=O)NCc5ccccn5)cc4c(=O)c3c2)cn1` [Compound A HCl seed], the solubility in series [2] is less than 2000 µg/mL.
For the compound `Cn1cc(-c2cnc3ccc4ccc(CS(=O)(=O)NCc5ccccn5)cc4c(=O)c3c2)cn1` [mono-HCl salt hydrate], in series [3] (room temperature or 40° C., slurry in Acetone:H2O, DMF:H2O and THF:H2O co-solvent), the “transition water activity above which the mono-HCl salt hydrate is thermodynamically more stable than mono-HCl salt anhydrate Form I” value is given as 0.57-0.60.
As for `Cn1cc(-c2cnc3ccc4ccc(CS(=O)(=O)NCc5ccccn5)cc4c(=O)c3c2)cn1` [mono-HCl salt anhydrate Form II], the “water activity at which it converts to mono-HCl salt anhydrate Form I” value in series [3] (slurried in Acetone:H2O co-solvent or other co-solvent systems) is given as 0.57-0.60. Further, the “relative humidity at which it rehydrates and converts back to the mono-HCl salt hydrate” value in series [1] is “higher than 75%”.
Turning to `Cn1cc(-c2cnc3ccc4ccc(CS(=O)(=O)NCc5ccccn5)cc4c(=O)c3c2)cn1` [Form I], the “physical stability after storage” value in series [4] (40° C./75% relative humidity), in series [4] (room temperature/53% relative humidity) and in series [4] (room temperature/85% relative humidity) was “physically stable” each time. In addition, in series [4] (solid state, on storage), the “solid conversion to the mono-HCl salt hydrate” value was “has not been observed”.

(Values after patent US20120184744A1, “CRYSTALLINE HYDROCHLORIDE SALTS OF C-MET KINASE INHIBITORS” (priority 2009, published 2012).)
